# Source: US20210369664A1, “PROPHYLACTIC OR THERAPEUTIC AGENT FOR PULMONARY HYPERTENSION WHICH COMPRISES PPAR? AGONIST” (TOHOKU UNIVERSITY, priority 2016, published 2021)
# What was measured:
# [1] = test system: hypoxia-induced pulmonary hypertension mice; conditions: WY-14643 3 mg/kg/day by mixed feed
# Experimental: Hypoxia-induced pulmonary hypertension mice serving as a model generally used in an animal experiment for pulmonary hypertension were administered a PPARα agonist (WY-14643, Sigma) at 3 mg/kg/day by mixed feed. Specifically, first, 8-week-old male wild-type mice (Balb/c mice, n=12 per group) were housed in a transparent acrylic box with an oxygen concentration controlled to 10% using a hypoxia generator (Teijin Limited, Japan) under a 12 h light and dark cycle. The mice were stimulated by hypoxia for 3 weeks, and a diet in this period was mixed with WY-14643 (the following solution was used as WY-14643: 1 mg of WY-14643 was dissolved in 0.1 ml of DMSO, and the solution of WY-14643 in DMSO was mixed with ultrapure water (mQ or ultrapure water) to prepare a 100 ml solution). The administration by mixed feed was performed at 3 mg/kg/day according to the previous report (Andrew D, et al. Hepatology. 2012; 56: 281-290). […] The following tests were also performed as controls: a test in which the mice were stimulated by hypoxia in the same manner as described above except that the mice were administered a 1:1,000 (V/V) mixed solution of DMSO and ultrapure water by mixed feed in place of WY-14643 as a diet; and a test in which the mice were administered the mixed solution of DMSO and ultrapure water by mixed feed in place of WY-14643 as a diet and were not stimulated by hypoxia.
# (§1) After the hypoxic stimulation for 3 weeks, a 1.2-Fr catheter (SciSense Inc., Ontario, Canada) was inserted in the jugular vein of the mice under isoflurane anesthesia and advanced into the right ventricle to measure a right ventricular systolic pressure. In addition, after the measurement of the right ventricular systolic pressure, the heart and the lungs were dissected. For the heart, the right ventricle and the left ventricle were separated and their weight ratio was measured to assess right ventricular hypertrophy.
# In addition, in tissue slides of the formalin-fixed lungs of each group, the number of pulmonary vessels including thrombi was counted for a field of about 100 mm^2, and the number of the pulmonary vessels including thrombi per 100 mm^2 was calculated. […] The resultant plasma sample was measured for its D-dimer concentration in plasma (unit: ng/ml) through the use of an ELISA kit (CEA506Mu manufactured by Life Science Inc.) according to the instruction of the kit. In addition, the plasma sample was measured for its thrombin-antithrombin complex (TAT) concentration in plasma (unit: pg/ml) through the use of an ELISA kit (SEA831Mu manufactured by Life Science Inc.) according to the instruction of the kit.
# The dissected lungs were fixed with 10% formalin for 24 hours, and then 3 μm sections of the specimens were used to prepare slides. The slides were subjected to Elastica-Masson staining for staining elastic fiber in order to assess vessel wall thickening (remodeling). 60 to 80 distal pulmonary arteries having diameters of from 20 μm to 70 μm were observed per mouse, and their wall thickening was divided into 3 stages.
# [2] = Average body weight of the administration groups in the hypoxia test; format: in vivo
# Experimental: as §1, with “hypertrophy. The average body weights of the Control group (PPARα agonist: −, Hypoxia [3 wks]: −), the Vehicle group (PPARα agonist: −, Hypoxia [3 wks]: +), and the WY-14643 administration group (PPARα agonist: +, Hypoxia [3 wks]: +) before the test were 29.2±1.2 g, 28.9±1.0 g, and 29.6±1.4 g, respectively. In addition, the average body weights of the Control group, the Vehicle group, and the WY-14643 administration group after the test were 32.1±2.1 g, 23.5±1.8 g, and 25.7±2.0 g, respectively.” for “hypertrophy.”
Structure (SMILES),"thrombus formation (number of pulmonary vessels including thrombi per 100 mm^2) ([1]; chronic hypoxic stimulation 3 weeks, lung tissue slides (FIG. 2))",pulmonary hypertension (overall result) ([1]; hypoxia 3 weeks),remodeling of distal pulmonary vessels (Elastica-Masson staining) ([1]; hypoxia 3 weeks (FIG. 3)),"right ventricular hypertrophy (right ventricle/(left ventricle plus septum) weight ratio) ([1]; hypoxia 3 weeks, Balb/c mice (FIG. 1))","D-dimer/TAT ratio (indicator of impaired fibrinolytic capacity) ([1]; hypoxia 3 weeks, plasma, ELISA (FIG. 2))","right ventricular systolic pressure ([1]; hypoxia (10% oxygen) 3 weeks, Balb/c mice, vs vehicle (FIG. 1))","average body weight after the test ([2]; WY-14643 administration group, 3 mg/kg/day, after 3 weeks hypoxia, Example 1) [g]","average body weight after the test ([2]; fenofibrate administration group, 50 mg/kg/day, Example 3) [g]"
"Cc1cccc(Nc2cc(Cl)nc(SCC(=O)O)n2)c1C [WY-14643, [[4-chloro-6-[(2,3-dimethylphenyl)amino]pyrimidin-2-yl]thio]acetic acid]",suppressed the increase in thrombus formation,ameliorated pulmonary hypertension,significant reduction,Significant reductions,its reduction was found,Significant reductions,25.7 ± 2.0,–
"CC(C)OC(=O)C(C)(C)Oc1ccc(C(=O)c2ccc(Cl)cc2)cc1 [fenofibrate, isopropyl 2-[4-(4-chlorobenzoyl)phenoxy]-2-methylpropionate]",–,–,–,–,–,–,–,334.30 ± 20.67
